Legend:
[1] = xn = mol fraction of the nth substance listed; conditions: 308.15 K, Liquid; for speed of sound: Frequency=2 MHz, Linear variable-path acoustic interferometer
[2] = excess molar enthalpy (molar enthalpy of mixing); xn = mol fraction of the nth substance listed; conditions: 308.15 K, Liquid, 2-drop calorimeter
[3] = Liquid; for speed of sound / mass density: 101.33 kPa; for speed of sound: Linear variable-path acoustic interferometer; for mass density: Pycnometric method; for vapor or sublimation pressure: Closed cell (Static) method

Nc1ccccc1 [aniline] + C1COCO1
Conditions	excess molar enthalpy [kcal/mol]	excess molar volume [m3/mol]	speed of sound [m/s]
[1], x2 = 0.0789	–	-1.34e-07	–
[1], x2 = 0.0812	–	–	1587
[1], x2 = 0.1132	–	-1.88e-07	–
[1], x2 = 0.1413	–	–	1576
[1], x2 = 0.2204	–	-3.3e-07	–
[1], x2 = 0.2212	–	–	1557
[1], x2 = 0.2916	–	–	1539
[1], x2 = 0.3111	–	-4.28e-07	–
[1], x2 = 0.3488	–	–	1523
[1], x2 = 0.4281	–	-4.97e-07	–
[1], x2 = 0.4621	–	–	1489
[1], x2 = 0.4916	–	-5.16e-07	–
[1], x2 = 0.5219	–	–	1470
[1], x2 = 0.523	–	-5.17e-07	–
[1], x2 = 0.5928	–	–	1447
[1], x2 = 0.5999	–	-4.93e-07	–
[1], x2 = 0.6342	–	-4.77e-07	–
[1], x2 = 0.6414	–	–	1431
[1], x2 = 0.7114	–	-4.18e-07	–
[1], x2 = 0.7131	–	–	1406
[1], x2 = 0.8001	–	–	1374
[1], x2 = 0.8202	–	-2.94e-07	–
[1], x2 = 0.8715	–	–	1347
[1], x2 = 0.8913	–	-1.9e-07	–
[1], x2 = 0.9213	–	–	1327
[1], x2 = 0.9233	–	-1.38e-07	–
[1], x2 = 0.9711	–	–	1307
[1], x2 = 0.9718	–	-5.25e-08	–
[2], x2 = 0.0613	-0.0386	–	–
[2], x2 = 0.1622	-0.0988	–	–
[2], x2 = 0.2241	-0.131	–	–
[2], x2 = 0.2774	-0.156	–	–
[2], x2 = 0.3503	-0.184	–	–
[2], x2 = 0.4231	-0.203	–	–
[2], x2 = 0.5511	-0.215	–	–
[2], x2 = 0.5812	-0.214	–	–
[2], x2 = 0.6223	-0.209	–	–
[2], x2 = 0.6816	-0.195	–	–
[2], x2 = 0.7519	-0.171	–	–
[2], x2 = 0.8127	-0.14	–	–
[2], x2 = 0.8928	-0.0887	–	–
[2], x2 = 0.9514	-0.0435	–	–

Cc1ccccc1N [2-methylaniline]
[3]
Conditions	mass density [kg/m3]	speed of sound [m/s]	vapor or sublimation pressure [kPa]
298.15 K	994.2	1602	–
308.15 K	–	–	0.1067

Nc1ccccc1 [aniline]
[3], 298.15 K
Conditions	mass density [kg/m3]	speed of sound [m/s]	vapor or sublimation pressure [kPa]
–	1017.2	1635	0.0933

CNc1ccccc1 [N-methylaniline] + C1COCO1
Conditions	excess molar enthalpy [kcal/mol]	excess molar volume [m3/mol]	speed of sound [m/s]
[1], x2 = 0.0415	–	–	1521
[1], x2 = 0.0709	–	-1.8e-08	–
[1], x2 = 0.1211	–	–	1511
[1], x2 = 0.1771	–	-4.5e-08	–
[1], x2 = 0.2001	–	–	1501
[1], x2 = 0.2387	–	-6.3e-08	–
[1], x2 = 0.2754	–	–	1490
[1], x2 = 0.2958	–	-8e-08	–
[1], x2 = 0.3349	–	-8.8e-08	–
[1], x2 = 0.3512	–	–	1477
[1], x2 = 0.3916	–	-9.5e-08	–
[1], x2 = 0.4222	–	–	1463
[1], x2 = 0.4361	–	-1.02e-07	–
[1], x2 = 0.4912	–	-1.1e-07	–
[1], x2 = 0.4943	–	–	1447
[1], x2 = 0.5421	–	–	1436
[1], x2 = 0.5531	–	-1.12e-07	–
[1], x2 = 0.6213	–	–	1415
[1], x2 = 0.6272	–	-1.04e-07	–
[1], x2 = 0.6992	–	-9.3e-08	–
[1], x2 = 0.7003	–	–	1393
[1], x2 = 0.7417	–	-8.8e-08	–
[1], x2 = 0.7832	–	–	1367
[1], x2 = 0.8545	–	-5.1e-08	–
[1], x2 = 0.8632	–	–	1341
[1], x2 = 0.9011	–	–	1329
[1], x2 = 0.9213	–	-3e-08	–
[1], x2 = 0.9632	–	–	1307
[2], x2 = 0.0853	-0.0914	–	–
[2], x2 = 0.1423	-0.13	–	–
[2], x2 = 0.2533	-0.162	–	–
[2], x2 = 0.3765	-0.156	–	–
[2], x2 = 0.4531	-0.141	–	–
[2], x2 = 0.5123	-0.127	–	–
[2], x2 = 0.5976	-0.105	–	–
[2], x2 = 0.6432	-0.0927	–	–
[2], x2 = 0.7123	-0.0749	–	–
[2], x2 = 0.7943	-0.0561	–	–
[2], x2 = 0.8543	-0.0409	–	–
[2], x2 = 0.8912	-0.0321	–	–
[2], x2 = 0.9321	-0.0223	–	–
[2], x2 = 0.9721	-0.00894	–	–

Cc1ccccc1N [2-methylaniline] + C1COCO1
Conditions	excess molar enthalpy [kcal/mol]	excess molar volume [m3/mol]	speed of sound [m/s]
[1], x2 = 0.0549	–	-8.4e-08	–
[1], x2 = 0.1122	–	–	1539
[1], x2 = 0.1721	–	-2.51e-07	–
[1], x2 = 0.1891	–	–	1526
[1], x2 = 0.2239	–	-3.12e-07	–
[1], x2 = 0.2413	–	–	1516
[1], x2 = 0.2769	–	-3.75e-07	–
[1], x2 = 0.2911	–	–	1506
[1], x2 = 0.3212	–	–	1500
[1], x2 = 0.351	–	-4.43e-07	–
[1], x2 = 0.4011	–	–	1484
[1], x2 = 0.4217	–	-4.86e-07	–
[1], x2 = 0.4513	–	–	1473
[1], x2 = 0.5518	–	-5.12e-07	–
[1], x2 = 0.5651	–	–	1444
[1], x2 = 0.5889	–	-5.12e-07	–
[1], x2 = 0.6218	–	-4.97e-07	–
[1], x2 = 0.6637	–	–	1415
[1], x2 = 0.6831	–	-4.66e-07	–
[1], x2 = 0.6989	–	–	1404
[1], x2 = 0.7512	–	–	1386
[1], x2 = 0.7523	–	-4.07e-07	–
[1], x2 = 0.8147	–	-3.28e-07	–
[1], x2 = 0.8319	–	–	1358
[1], x2 = 0.8916	–	-2.16e-07	–
[1], x2 = 0.9071	–	–	1330
[1], x2 = 0.9407	–	-1.23e-07	–
[1], x2 = 0.9713	–	–	1306
[2], x2 = 0.0754	-0.0527	–	–
[2], x2 = 0.1632	-0.111	–	–
[2], x2 = 0.2424	-0.155	–	–
[2], x2 = 0.3213	-0.188	–	–
[2], x2 = 0.4001	-0.209	–	–
[2], x2 = 0.4843	-0.217	–	–
[2], x2 = 0.5655	-0.208	–	–
[2], x2 = 0.6112	-0.198	–	–
[2], x2 = 0.6979	-0.166	–	–
[2], x2 = 0.7432	-0.145	–	–
[2], x2 = 0.808	-0.112	–	–
[2], x2 = 0.8831	-0.0672	–	–
[2], x2 = 0.9311	-0.039	–	–
[2], x2 = 0.9621	-0.0207	–	–

CNc1ccccc1 [N-methylaniline]
[3]
Conditions	mass density [kg/m3]	speed of sound [m/s]	vapor or sublimation pressure [kPa]
298.15 K	982.4	1572	–
308.15 K	–	–	0.0667

C1COCO1 [1,3-dioxolane]
[3]
Conditions	mass density [kg/m3]	speed of sound [m/s]	vapor or sublimation pressure [kPa]
298.15 K	1047.2	1388	–
308.15 K	–	–	21.5

Source: the NIST ThermoML archive (doi:10.1016/j.tca.2010.07.027)
